Patent publication US20090149584A1, “USE OF HEXAHYDROPHTHALIMIDE COMBINATIONS AS SOFTENER” (priority 2006, published 2009)

Tests used:
Format in all cases: physicochemical
[1] = Solution temperature for PVC in accordance with DIN 53408
Text: A particularly important factor for the use of plasticizers is their gelling performance for PVC. Gelling performance is the capability of a plasticizer to penetrate into the polymeric structure of the PVC and to bring about a plasticizing effect by reducing the level of interaction between the polymer chains. A measure of the gelling performance of a plasticizer is the solution temperature for PVC, determined to DIN 53408. The lower the solution temperature, the better the gelling performance. Better gelling performance or lower solution temperature of the plasticizer means that lower processing temperatures can be selected in the production of flexible PVC. Lower temperatures save energy and time.
(§1) In accordance with DIN 53408, the solution temperatures of N-2-ethylhexylhexahydrophthalimide were measured for PVC. For comparison, the solution temperatures of the known plasticizers di(2-ethylhexyl) phthalate and diisobutyl phthalate were determined. Vapor pressure measurements were carried out in accordance with annex A4 to European Commission specification 92/69/ECC, OECD test specification 104 and, respectively, EPA test specification OPPTS 830.7950. The following table compares the results.

[2] = Vapor pressure measurement (annex A4 to 92/69/ECC, OECD 104, EPA OPPTS 830.7950)
Method: as §1

[3] = Boiling point

Molecule	Solution temperature for PVC [1] [°C]	Vapor pressure ([2]; 140° C.) [hPa]	Vapor pressure ([2]; 160° C.) [hPa]	Vapor pressure ([2]; 180° C.) [hPa]	Vapor pressure ([2]; 200° C.) [hPa]	Boiling point [3] [°C]
CCCCC(CC)COC(=O)c1ccccc1C(=O)OCC(CC)CCCC (stereo not shown) [Di(2-ethylhexyl) phthalate, di(2-ethylhexyl) phthalate]	124	0.04	0.17	0.58	1.80	384
CC(C)COC(=O)c1ccccc1C(=O)OCC(C)C [Diisobutyl phthalate, diisobutyl phthalate]	99	1.50	4.20	10.70	24.40	295
N-2-ethylhexylhexahydrophthalimide	99	–	–	–	–	–
